These results are taken from ChEMBL document CHEMBL6182920, “The Discovery of C7-Substituted Norbornyl Bisamides as RXFP1 Small Molecule Agonists” (J Med Chem, 2025).

pEC50, pIC50: −log10 of the molar value.

Series [1] addresses T1, Nuclear receptor subfamily 1 group I member 2 (Homo sapiens, UniProt O75469).
T1 sequence (O75469 whole entry): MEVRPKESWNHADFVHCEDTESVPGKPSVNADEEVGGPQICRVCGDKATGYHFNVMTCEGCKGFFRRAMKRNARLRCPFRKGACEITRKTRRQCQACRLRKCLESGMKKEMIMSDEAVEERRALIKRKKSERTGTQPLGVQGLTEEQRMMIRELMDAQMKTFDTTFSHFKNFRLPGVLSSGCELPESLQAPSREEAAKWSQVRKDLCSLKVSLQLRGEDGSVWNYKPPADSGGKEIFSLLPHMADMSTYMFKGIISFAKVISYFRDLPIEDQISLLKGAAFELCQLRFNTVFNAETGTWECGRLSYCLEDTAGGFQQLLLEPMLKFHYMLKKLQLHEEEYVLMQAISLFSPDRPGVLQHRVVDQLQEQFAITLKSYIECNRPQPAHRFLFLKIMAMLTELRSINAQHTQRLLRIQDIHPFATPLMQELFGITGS
The series can be described thus: Activation of PXR (unknown origin).

Series [2] can be described thus: Half life in Sprague-Dawley rat at 1 mg/kg, iv. The note with it: in vivo. The series is classed as ADME, organism-based.
A short description of series [3]: Microsomal stability in rat liver microsomes assessed as half life. The format is ADME, Microsome. On the technique in general: Liver microsomes are vesicles of endoplasmic reticulum, rich in cytochrome P450 enzymes.
The next series deals with T2, Relaxin receptor 1 (Mus musculus, UniProt Q6R6I7).
T2 sequence (Q6R6I7 whole entry): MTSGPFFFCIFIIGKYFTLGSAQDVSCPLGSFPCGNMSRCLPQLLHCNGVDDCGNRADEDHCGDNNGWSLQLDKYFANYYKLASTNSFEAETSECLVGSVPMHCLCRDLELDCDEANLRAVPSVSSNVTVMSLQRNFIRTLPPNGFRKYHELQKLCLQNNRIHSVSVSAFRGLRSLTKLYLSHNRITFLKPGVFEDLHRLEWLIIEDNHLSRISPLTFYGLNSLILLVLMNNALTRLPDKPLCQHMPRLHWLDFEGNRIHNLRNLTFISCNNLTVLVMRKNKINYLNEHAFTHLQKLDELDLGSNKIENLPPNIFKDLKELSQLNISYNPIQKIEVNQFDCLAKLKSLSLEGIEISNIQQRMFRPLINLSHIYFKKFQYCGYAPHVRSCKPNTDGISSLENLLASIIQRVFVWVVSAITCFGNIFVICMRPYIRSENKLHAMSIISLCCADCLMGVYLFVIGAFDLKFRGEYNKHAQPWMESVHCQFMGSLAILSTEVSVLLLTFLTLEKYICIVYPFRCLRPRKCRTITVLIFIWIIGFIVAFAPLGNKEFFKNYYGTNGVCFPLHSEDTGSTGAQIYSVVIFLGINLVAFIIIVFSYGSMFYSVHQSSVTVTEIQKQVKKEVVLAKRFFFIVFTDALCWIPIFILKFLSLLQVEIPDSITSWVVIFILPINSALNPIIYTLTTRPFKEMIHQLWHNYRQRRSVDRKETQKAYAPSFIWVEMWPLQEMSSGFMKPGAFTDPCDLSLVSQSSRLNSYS
The series can be described thus: Agonist activity at mouse RXFP1 stably expressed in HEK293 cells assessed as intracellular cAMP accumulation incubated for 30 mins by HTRF assay. The format is functional, cell-based.

Another series has as its target Nav1.5 (Homo sapiens, UniProt Q14524). The series can be described thus: Inhibition of human Nav1.5 at 10 uM by patch clamp assay relative to control. (In general: The patch-clamp technique gives a direct electrical read-out from membranes.)
The next series concerns the target T3, Cytochrome P450 2C8 (Homo sapiens, UniProt P10632).
T3 sequence (P10632 whole entry): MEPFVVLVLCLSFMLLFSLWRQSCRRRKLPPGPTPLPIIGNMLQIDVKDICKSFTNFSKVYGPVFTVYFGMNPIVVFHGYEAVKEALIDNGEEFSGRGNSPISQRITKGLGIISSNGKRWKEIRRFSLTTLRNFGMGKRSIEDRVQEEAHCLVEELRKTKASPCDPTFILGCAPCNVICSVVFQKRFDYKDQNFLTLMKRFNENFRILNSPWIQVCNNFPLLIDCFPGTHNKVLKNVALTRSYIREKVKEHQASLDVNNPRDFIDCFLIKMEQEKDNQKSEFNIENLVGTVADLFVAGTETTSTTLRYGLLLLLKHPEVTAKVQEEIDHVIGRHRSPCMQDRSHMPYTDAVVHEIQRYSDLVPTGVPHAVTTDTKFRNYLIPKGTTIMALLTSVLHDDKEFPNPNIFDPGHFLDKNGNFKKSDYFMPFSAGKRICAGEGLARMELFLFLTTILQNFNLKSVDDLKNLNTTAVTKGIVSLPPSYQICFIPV
The series can be described thus: Inhibition of CYP2C8 (unknown origin).

Series [4] in a line: Microsomal stability in human liver microsomes assessed as half life. The series is classed as ADME, Microsome.

Chain of Nav1.5 (Q14524 whole entry): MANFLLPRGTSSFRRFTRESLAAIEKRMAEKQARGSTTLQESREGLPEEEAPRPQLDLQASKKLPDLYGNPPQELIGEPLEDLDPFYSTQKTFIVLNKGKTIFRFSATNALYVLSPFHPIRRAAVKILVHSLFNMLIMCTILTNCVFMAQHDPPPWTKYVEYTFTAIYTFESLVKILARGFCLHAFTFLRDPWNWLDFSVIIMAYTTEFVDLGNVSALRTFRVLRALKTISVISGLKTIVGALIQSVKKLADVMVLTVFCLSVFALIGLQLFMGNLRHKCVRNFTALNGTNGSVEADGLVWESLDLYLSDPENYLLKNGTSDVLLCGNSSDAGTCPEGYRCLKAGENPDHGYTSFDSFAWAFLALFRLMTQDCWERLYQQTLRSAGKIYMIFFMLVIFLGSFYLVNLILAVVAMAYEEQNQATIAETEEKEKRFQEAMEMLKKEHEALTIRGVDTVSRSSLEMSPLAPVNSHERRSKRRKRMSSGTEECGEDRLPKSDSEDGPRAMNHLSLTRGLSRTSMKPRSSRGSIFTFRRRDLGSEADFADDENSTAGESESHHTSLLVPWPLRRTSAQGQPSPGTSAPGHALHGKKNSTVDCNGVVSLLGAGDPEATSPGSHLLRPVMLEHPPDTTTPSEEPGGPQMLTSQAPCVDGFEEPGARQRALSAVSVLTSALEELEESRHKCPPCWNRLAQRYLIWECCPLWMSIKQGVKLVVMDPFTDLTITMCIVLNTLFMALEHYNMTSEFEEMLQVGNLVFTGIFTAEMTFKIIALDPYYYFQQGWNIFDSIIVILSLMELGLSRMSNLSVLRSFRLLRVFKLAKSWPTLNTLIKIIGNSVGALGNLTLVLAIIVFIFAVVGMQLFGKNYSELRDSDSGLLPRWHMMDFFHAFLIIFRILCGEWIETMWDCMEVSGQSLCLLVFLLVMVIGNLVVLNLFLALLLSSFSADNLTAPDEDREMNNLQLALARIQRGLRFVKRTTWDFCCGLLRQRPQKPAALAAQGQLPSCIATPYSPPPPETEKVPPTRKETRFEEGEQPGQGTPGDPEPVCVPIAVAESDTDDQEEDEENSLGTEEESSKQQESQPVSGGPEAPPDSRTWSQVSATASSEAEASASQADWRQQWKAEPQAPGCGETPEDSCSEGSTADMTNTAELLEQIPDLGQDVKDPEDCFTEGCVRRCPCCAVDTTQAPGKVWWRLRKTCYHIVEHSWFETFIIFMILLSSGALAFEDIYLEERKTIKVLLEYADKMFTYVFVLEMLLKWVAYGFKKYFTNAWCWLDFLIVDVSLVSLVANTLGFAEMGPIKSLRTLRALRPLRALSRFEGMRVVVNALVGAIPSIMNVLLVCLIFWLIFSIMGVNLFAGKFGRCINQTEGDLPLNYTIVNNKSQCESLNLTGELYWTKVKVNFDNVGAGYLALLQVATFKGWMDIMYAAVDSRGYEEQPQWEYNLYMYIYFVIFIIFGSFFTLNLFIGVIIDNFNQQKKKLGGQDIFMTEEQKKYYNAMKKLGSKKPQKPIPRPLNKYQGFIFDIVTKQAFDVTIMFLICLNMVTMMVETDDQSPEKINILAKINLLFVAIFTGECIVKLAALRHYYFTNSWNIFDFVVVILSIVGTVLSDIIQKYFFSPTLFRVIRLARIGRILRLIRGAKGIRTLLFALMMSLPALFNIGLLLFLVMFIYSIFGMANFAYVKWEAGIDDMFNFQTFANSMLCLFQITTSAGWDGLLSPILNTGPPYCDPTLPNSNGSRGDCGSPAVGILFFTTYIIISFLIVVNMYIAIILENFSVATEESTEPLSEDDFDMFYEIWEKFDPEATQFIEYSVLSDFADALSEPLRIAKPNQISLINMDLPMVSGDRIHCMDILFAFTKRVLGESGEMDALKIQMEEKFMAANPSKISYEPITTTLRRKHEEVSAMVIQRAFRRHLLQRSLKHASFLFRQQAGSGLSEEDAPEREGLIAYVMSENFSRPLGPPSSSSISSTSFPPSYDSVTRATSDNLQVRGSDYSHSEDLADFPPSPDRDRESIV

`CNC(=O)OC(C(=O)O)c1ccc(F)c(-c2ccc(OC)c(C(=O)N[C@H]3[C@@H](C(=O)Nc4ccc(F)c(C(F)(F)F)c4)[C@H]4CC[C@@H]3/C4=C\C3CC3)c2)c1` (stereo in doubt; 39): the pEC50 (usually −log10 of the EC50, conventionally taken in molar units) in series [1] was below 4.30; at Relaxin receptor 1 it was 7.52. Also, the half-life – broadly, the time in which the quantity being followed falls by half – was 4.43 h in series [2], above 2 h in series [3] and above 2 h in series [4]. On Nav1.5, the inhibition (as a rule, the percentage by which the read-out fell short of the control) at 10 µM was determined as 59%. Besides, the negative-log IC50 (pIC50) – broadly, the negative decadic logarithm of the IC50, by convention in mol/L – at Cytochrome P450 2C8 was 5.59.
